The record followed here is patent US5082841A, “3-carbonyl-4-amino-8-substituted quinoline compounds useful in inhibiting gastric acid secretions” (SmithKline Beecham Intercredit B.V., priority 1989, dated 1992).

In this experiment the target is T1, H+ K+ ATPase (lyophilised gastric vesicles) (Sus scrofa, UniProt P19156).
T1 construct: Lyophilised gastric vesicles were prepared from pig fundic mucosa; from tissue; host or cells: pig fundic mucosa (lyophilised gastric vesicles)
T1 sequence (P19156 2-1034 limits assumed): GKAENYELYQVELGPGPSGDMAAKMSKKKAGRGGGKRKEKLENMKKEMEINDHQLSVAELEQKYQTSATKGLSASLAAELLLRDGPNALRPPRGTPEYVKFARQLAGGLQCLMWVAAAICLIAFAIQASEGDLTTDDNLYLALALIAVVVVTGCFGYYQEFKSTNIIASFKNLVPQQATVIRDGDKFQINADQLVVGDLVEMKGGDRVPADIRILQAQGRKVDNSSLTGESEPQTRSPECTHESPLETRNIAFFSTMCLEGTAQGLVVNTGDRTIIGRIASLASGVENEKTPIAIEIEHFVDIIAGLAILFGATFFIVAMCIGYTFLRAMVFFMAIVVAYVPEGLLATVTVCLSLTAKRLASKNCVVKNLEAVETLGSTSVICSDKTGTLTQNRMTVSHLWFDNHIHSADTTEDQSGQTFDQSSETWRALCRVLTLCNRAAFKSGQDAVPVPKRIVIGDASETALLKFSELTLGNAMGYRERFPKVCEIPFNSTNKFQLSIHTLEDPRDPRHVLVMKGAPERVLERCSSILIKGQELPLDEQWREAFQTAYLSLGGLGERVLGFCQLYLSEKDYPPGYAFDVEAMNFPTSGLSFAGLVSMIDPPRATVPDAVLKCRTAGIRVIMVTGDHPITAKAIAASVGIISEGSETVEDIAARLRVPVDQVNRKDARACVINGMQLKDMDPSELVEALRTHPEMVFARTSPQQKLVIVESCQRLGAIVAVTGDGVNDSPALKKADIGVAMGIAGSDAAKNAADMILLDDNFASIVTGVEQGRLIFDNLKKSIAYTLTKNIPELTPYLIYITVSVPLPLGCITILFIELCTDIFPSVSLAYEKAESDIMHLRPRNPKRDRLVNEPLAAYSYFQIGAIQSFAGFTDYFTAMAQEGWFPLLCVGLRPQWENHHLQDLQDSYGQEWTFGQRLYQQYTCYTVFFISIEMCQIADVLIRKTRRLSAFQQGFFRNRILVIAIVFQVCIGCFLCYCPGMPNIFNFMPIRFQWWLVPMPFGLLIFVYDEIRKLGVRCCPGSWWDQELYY
T1 sequence (P18434 whole entry partner): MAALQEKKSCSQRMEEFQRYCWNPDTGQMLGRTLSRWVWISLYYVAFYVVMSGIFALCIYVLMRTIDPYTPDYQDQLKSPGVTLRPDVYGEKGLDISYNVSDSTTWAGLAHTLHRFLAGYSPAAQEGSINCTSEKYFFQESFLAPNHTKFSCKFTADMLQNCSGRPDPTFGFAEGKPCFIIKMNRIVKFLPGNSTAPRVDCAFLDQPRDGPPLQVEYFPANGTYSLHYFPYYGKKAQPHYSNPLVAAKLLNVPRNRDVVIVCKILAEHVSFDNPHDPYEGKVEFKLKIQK
Kind of experiment: K+-stimulated ATPase activity in lyophilised gastric vesicles. The format is biochemical. Conditions: lyophilised gastric vesicles from pig fundic mucosa, 37° C., pH 7.0, 1 mM KCl, 30 minutes incubation. How it is done: The effects of a single high concentration (100 μM) of a compound of structure (I) on K-stimulated ATPase activity in lyophilised gastric vesicles was determined. Preferred compounds of structure (I) were also tested over a range of concentrations to determine IC50 values.
(i) Preparation of lyophilised gastric vesicles (H/K-ATPase)
Lyophilised gastric vesicles were prepared from pig fundic mucosa after the method of Keeling et. al. (Biochem. Pharmacol., 34, 2967, 1985).
(ii) K^+ -stimulated ATPase activity.
K^+ -stimulated ATPase activity was determined at 37° C. in the presence of the following : I0 mM Pipes/Tris buffer pH 7.0, 2 mM MgSO4, 1 mM KCl, 2 mM Na2 ATP and 3-6 μg protein/ml lyophilised gastric vesicles. After incubation for 30 minutes, the inorganic phosphate hydrolysed from ATP was determined by the method of Yoda and Hokin (Biochem. Biophys. Res. Commun. 40, 880, 1970).
Compounds of structure (I) were dissolved in dimethylsulphoxide which up to the highest concentration used had no effect on K+-stimulated ATPase activity.
The effect of the highest concentration of each compound of structure (I) on the recovery of a standard amount of inorganic phosphate wa also determined.
`CCCC(=O)c1cnc2c(C(O)CN3CCOCC3)cccc2c1Nc1ccccc1C` (centres unmarked) [Example 7, 3-butyryl-4-(2-methylphenylamino)-8-(1-hydroxy-2-(1-morpholino)ethyl)quinoline] came in with an IC50 of 390 to 3520 nM.

Take `CCCC(=O)c1cnc2c(OCCCN3CCCCC3)cccc2c1Nc1ccccc1C` [Example 5, 3-butyryl-4-(2-methylphenylamino)-8-(3-piperidinopropoxy)quinoline]: the IC50 fell in the range of 390 to 3520 nM. The figure for `CCCC(=O)c1cnc2c(OCCCN(C)C)cccc2c1Nc1ccc(F)cc1C` [Example 2, 3-butyryl-4-(4-fluoro-2-methylphenylamino)-8-(3-dimethylaminopropoxy)quinoline] is 390 to 3520 nM; for `CCCC(=O)c1cnc2c(OCCN(C)C)cccc2c1Nc1ccccc1C` [Example 3, 3-butyryl-4-(2-methylphenylamino)-8-(2-dimethylaminoethoxy)quinoline] it is 390 to 3520 nM.

For the compound `CCCC(=O)c1cnc2c(C(O)CN(C)C)cccc2c1Nc1ccccc1C` (centres unmarked) [Example 8, 3-butyryl-4-(2-methylphenylamino)-8-(1-hydroxy-2-dimethylaminoethyl)quinoline], the IC50 was 390 to 3520 nM. The value for `CCCC(=O)c1cnc2c(OCCCN(C)CCCc3ccccc3)cccc2c1Nc1ccccc1C` [Example 10, 3-butyryl-4-(2-methylphenylamino)-8-(3-(N-methyl-N-(3-phenylpropyl)amino)propoxy)quinoline] was 390 to 3520 nM. For the compound `CCCC(=O)c1cnc2c(OCCCN3CCOCC3)cccc2c1Nc1ccccc1C` [Example 6, 3-butyryl-4-(2-methylphenylamino)-8-(3-morpholinopropoxy)quinoline], the IC50 lay within 390 to 3520 nM. Consider `CCCC(=O)c1cnc2c(OCCCN3CCCC3)cccc2c1Nc1ccccc1C` [Example 4, 3-butyryl-4-(2-methylphenylamino)-8-(3-(1-pyrrolidinyl)propoxy)quinoline], for which the IC50 fell in the range of 390 to 3520 nM. Regarding `CCCC(=O)c1cnc2c(OCCCN(C)C)cccc2c1Nc1ccccc1C` [Example 1, 3-butyryl-4-(2-methylphenylamino)-8-(3-dimethylaminopropoxy)quinoline], the IC50 was in the range of 390 to 3520 nM. The figure for `CCCC(=O)c1cnc2c(OCCCN(C)Cc3ccccc3)cccc2c1Nc1ccccc1C` [Example 9, 3-butyryl-4-(2-methylphenylamino)-8-(3-(N-benzyl-N-methylamino)propoxy)quinoline] is 390 to 3520 nM.

`CCCC(=O)c1cnc2c(NCCCN3CCOCC3)cccc2c1Nc1ccccc1C` [Example 11, 3-butyryl-4-(2-methylphenylamino)-8-(3-morpholinopropylamino)quinoline]: the IC50 lay in the range of 390 to 3520 nM.

Usually IC50 stands for the concentration needed to halve the response being measured. High values mean lower potency, low ones higher potency.
